Assay results reported in article PMC3025356, “Mechanism of the Ca^2+-Dependent Interaction between S100A4 and Tail Fragments of Nonmuscle Myosin Heavy Chain IIA” (Journal of Molecular Biology, 2011).
Where two headings read alike, the source gives them in different places.

Assays:
[1] = system: M200 filaments; conditions: cited from earlier work
Description: Over the last two decades, there has been much interest in the role of the S100 Ca^2^+-binding protein family in the regulation of cellular events.[1,2] Identifying the specific targets of each of the 24 members[3] and deducing their mechanisms of action in vitro and in vivo remain to be a challenge. This is exemplified by S100A4 (also known as Mts1, metastasin, p9Ka, pEL98, calvasculin, and Fsp-1), which has been implicated in a wide range of cellular events and numerous diseases and binds to several different targets in vitro.[4–6] In particular, following early work,[7–9] there have been ma ... || A corresponding stoichiometry is also seen in the interaction of S100A4 with M200, where 2 mol of S100A4 monomer was required to solubilise 1 mol of M200 aggregate (when expressed as M200 polypeptide chain concentration) (Fig. 9b). […] These stoichiometries complicate the calculation of the equilibrium parameters for the models described in Schemes 1 and 2. If the binding sites remaine ...

[2] = system: M200 filaments; format: biochemical, human
Procedure: Fig. 9 Dissociation of M200 filaments by S100A4. (a) Initially, M200 was added (i) from a concentrated stock in 0.5 M NaCl to give a final concentration of 5 μM M200 (with respect to the polypeptide chain) in 100 mM NaCl, 10 mM Hepes, and 0.1 mM Ca^2+ at pH 7.5 and 20 °C. A biphasic rise in turbidity was recorded for 200 s (continuous line). Then 10 μM S100A4 (with respect to monomer concentration) was added (ii), followed by 0.2 mM EGTA (iii) and 1 mM Ca^2+ (iv). […] (b) M200 was diluted (i) into 100 mM NaCl to form filaments as in (a), then 5 μM S100A4 was added (ii), causing a 54% drop in turbidity. A further 5 μM S100A4 (iii) caused turbidity to fall to almost zero. (c) Stopped-flow records monitoring the dissociation of 5 μM M200 filaments on jumping [NaCl] from 100 mM to 120 mM NaCl. Other components of the buffer were 20 mM Hepes, 1 mM Mg^2+, and 100 μM Ca^2+ at pH 7.5 and 20 °C. […] In the presence of 20 μM S100A4 (lower trace), the turbidity decreased by 87% with a rate constant of 0.2 s^− 1.
Absorption spectra were recorded using a Cary 50 spectrophotometer (Varian Ltd., Walton on Thames, UK). Protein concentrations were calculated from their absorbance at 280 nm, using molar coefficients of 2980 M^− 1 cm^− 1 (M200 and S100A4) and 1490 M^− 1 cm^− 1 (M111), based on their tyrosine content (two residues per chain and one residue per chain, respectively). Myosin fragments were measured in 0.5 M NaCl buffer, and care was taken to correct for the small contribution from turbidity. Protein concentrations are stated in terms of their monomeric polypeptide chain concentration. Under the conditions used for kinetic analysis, S100A4 is predominantly a dimer,[21,25] and M200 and M111 form stable coiled coils; therefore, the molar protein concentrations are half those given in all three cases. Fluorescence emission spectra were also checked, and those preparations containing a detectable shoulder at 340 nm due to contaminating tryptophan-containing proteins were subjected to further purification. F-M16^N concentrations were based on fluorescein absorbance (ɛ490 = 78,000 M^− 1 cm^− 1). […] Quin-2 concentrations were calculated from ɛ354 = 5000 M^− 1 cm^− 1 in the absence of Ca^2+.[39] Turbidity assays used to monitor M200 filament formation and solubilisation with manual mixing were carried out using a 10-mm pathlength and a 0.1-ml microcuvette (105.250-QS; Hellma, Southend on Sea, UK) at a wavelength of 300 nm. For determination of the free Ca^2+ concentration, Fura-2 fluorescence excitation spectra were measured in the same cuvette using the 2-mm path for excitation to minimise inner filter effects.

[3] = Stopped-flow Quin-2 fluorescence, Ca^2+ dissociation from / binding to S100A4 constructs (no target)
Description: In order to increase the signal-to-noise ratio of the Ca^2+ dissociation transients, we used Quin-2 as combined fluorescent indicator and high-affinity chelator.[19,20] These measurements confirmed that Ca^2+ dissociated from wild-type protein with a rate constant of 16 s^− 1 (Fig. 3a; cf. 20 s^− 1 for the tyrosine signal). Given the poor signal-to-noise ratio of the tyrosine signal, the difference is barely significant but may reflect the fact that the Quin-2 signal represents at least a two-step sequential reaction (Ca^2+ dissociation from S100AS4, followed by rapid binding to Quin-2).
Fig. 3 (a) Dissociation of Ca^2+ from wild-type S100A4 (black), E33Q mutant (blue), and D63N mutant (red), as monitored by Quin-2 fluorescence. […] The records for the mutants were vertically offset for clarity. (b) Ca^2+ binding to S100A4 as determined from the amplitude of the resolved transient (k ≈ 20 s^− 1) when 6.5 μM S100A4 was preincubated with various added [Ca^2+] and then mixed with 100 μM Quin-2. The amplitude was converted into a bound concentration from an independent calibration using the same Quin-2 solution and known free [Ca^2+]. […] While either model could account for the data, the measured stoichiometry from ITC (Table 1) favors the cooperative model.
Stopped-flow measurements were carried out using an SX18-MV apparatus (Applied Photophysics Ltd., Leatherhead, UK) with a dead time of 1.5 ms.[40] Records were generally captured on a logarithmic time base. Absorption (turbidity) measurements were usually recorded using a 10-mm pathlength, while fluorescence was recorded with a 2-mm pathlength for excitation and emission. The stated concentrations of components refer to the reaction chamber after mixing, unless otherwise indicated. Tyrosine fluorescence was excited at 280 nm, and the emission was collected through a UG11 bandpass filter plus a 305-nm longpass filter.[18] Fluorescein fluorescence was excited at 480 nm, and the emission was detected through a 515-nm longpass filter. Quin-2 fluorescence was measured by excitation at 336 nm, and emission was collected with a 455-nm longpass filter. For simultaneous recording of light scatter, a second channel was monitored through a UG11 filter. Rate constants were obtained by fitting to single-exponential or double-exponential functions using Kaleidagraph (Synergy Software) or Applied Photophysics Pro-Data software. Modeling of kinetic schemes was performed using Berkeley Madonna software.

Kd ([3]; model for Fig. 3b data, read-out: Kd, EF2 site (alternative model)): 5 µM
Kd ([3]; model for Fig. 3b data, read-out: Kd, first Ca^2+ at EF2 of dimer (cooperative model)): 100 µM
Kd ([3]; model for Fig. 3b data, read-out: Kd, second Ca^2+ at EF2 of dimer (cooperative model)): 1.7 µM
rate constant without added Ca^2+ ([3]; no added Ca^2+, excess Quin-2): around 1 s^− 1
Kd ([3]; optically silent EF1 model for Fig. 3b data, read-out: Kd, EF1 site (alternative model)): 0.25 µM
Ca^2+ bound per monomer from calibrated Quin-2 amplitude ([3]; resolved signal, 6.5 μM S100A4, 100 μM Quin-2): one Ca^2+ bound per S100A4 monomer
Ca^2+ dissociation rate constant (Quin-2) ([3]; single exponential fit, no target): 16 s^− 1
rate constant of second slow phase of Ca^2+ dissociation ([3]; some preparations): 0.4–4 s^− 1
Substance: S100A4: recombinant S100A4 expressed in E. coli BL21(DE3)
dissociation of rod filaments ([1]; 20 mM NaCl): ineffective at dissociating rod filaments
S100A4 dimer required to disassemble 1 mol of NM-MHC IIA rods ([1]; ref 11 (Li et al.)): 1 mol of S100A4 dimer
S100A4 monomer excess per M200 chain required for full solubilisation [2]: 2 -fold molar excess
drop in turbidity ([2]; 5 μM S100A4, M200 filaments, 100 mM NaCl): 54%
effect of excess EGTA on solubilisation ([2]; excess EGTA): reversed the process, allowing M200 filaments to reform
turbidity after further S100A4 ([2]; further 5 μM S100A4 (10 μM total)): almost zero
S100A4 monomer required to solubilise 1 mol of M200 ([2]; per M200 polypeptide chain): 2 mol of S100A4 monomer
kobs, Ca^2+ dissociation, no target (k− 1) ([3]; 10 μM S100A4 + 50 μM Ca^2+ mixed with 100 μM Quin-2, pH 7.5, 20 °C): 17 s^− 1
amplitude without added Ca^2+ ([3]; no added Ca^2+, excess Quin-2): 0.1 mol of Ca^2+ per mole of S100A4 monomer
